Measured values taken from patent publication US9796711B2, “Substituted pyrazolo[3,4-b]pyridin-6-carboxylic acids and method of use” (AbbVie S.àr.l., priority 2015, dated 2017).

Legend:
ΔF508-CFTR [1] = molecular target: T1, ΔF508-CFTR (Homo sapiens, UniProt P13569, DEL508-508); assay: CFTR cell surface levels using HRP-tagged ΔF508-CFTR expressing CFBE cells, in the presence of a co-corrector; format: cell-based; conditions: HRP-tagged ΔF508-CFTR expressing CFBE cells, in the presence of 3 μM co-corrector; for EC50: read-out: EC50
T1 construct: host or cells: CFBE41o-, doxycycline-inducible
T1 sequence (P13569 with tags, fused parts or gaps DEL508-508): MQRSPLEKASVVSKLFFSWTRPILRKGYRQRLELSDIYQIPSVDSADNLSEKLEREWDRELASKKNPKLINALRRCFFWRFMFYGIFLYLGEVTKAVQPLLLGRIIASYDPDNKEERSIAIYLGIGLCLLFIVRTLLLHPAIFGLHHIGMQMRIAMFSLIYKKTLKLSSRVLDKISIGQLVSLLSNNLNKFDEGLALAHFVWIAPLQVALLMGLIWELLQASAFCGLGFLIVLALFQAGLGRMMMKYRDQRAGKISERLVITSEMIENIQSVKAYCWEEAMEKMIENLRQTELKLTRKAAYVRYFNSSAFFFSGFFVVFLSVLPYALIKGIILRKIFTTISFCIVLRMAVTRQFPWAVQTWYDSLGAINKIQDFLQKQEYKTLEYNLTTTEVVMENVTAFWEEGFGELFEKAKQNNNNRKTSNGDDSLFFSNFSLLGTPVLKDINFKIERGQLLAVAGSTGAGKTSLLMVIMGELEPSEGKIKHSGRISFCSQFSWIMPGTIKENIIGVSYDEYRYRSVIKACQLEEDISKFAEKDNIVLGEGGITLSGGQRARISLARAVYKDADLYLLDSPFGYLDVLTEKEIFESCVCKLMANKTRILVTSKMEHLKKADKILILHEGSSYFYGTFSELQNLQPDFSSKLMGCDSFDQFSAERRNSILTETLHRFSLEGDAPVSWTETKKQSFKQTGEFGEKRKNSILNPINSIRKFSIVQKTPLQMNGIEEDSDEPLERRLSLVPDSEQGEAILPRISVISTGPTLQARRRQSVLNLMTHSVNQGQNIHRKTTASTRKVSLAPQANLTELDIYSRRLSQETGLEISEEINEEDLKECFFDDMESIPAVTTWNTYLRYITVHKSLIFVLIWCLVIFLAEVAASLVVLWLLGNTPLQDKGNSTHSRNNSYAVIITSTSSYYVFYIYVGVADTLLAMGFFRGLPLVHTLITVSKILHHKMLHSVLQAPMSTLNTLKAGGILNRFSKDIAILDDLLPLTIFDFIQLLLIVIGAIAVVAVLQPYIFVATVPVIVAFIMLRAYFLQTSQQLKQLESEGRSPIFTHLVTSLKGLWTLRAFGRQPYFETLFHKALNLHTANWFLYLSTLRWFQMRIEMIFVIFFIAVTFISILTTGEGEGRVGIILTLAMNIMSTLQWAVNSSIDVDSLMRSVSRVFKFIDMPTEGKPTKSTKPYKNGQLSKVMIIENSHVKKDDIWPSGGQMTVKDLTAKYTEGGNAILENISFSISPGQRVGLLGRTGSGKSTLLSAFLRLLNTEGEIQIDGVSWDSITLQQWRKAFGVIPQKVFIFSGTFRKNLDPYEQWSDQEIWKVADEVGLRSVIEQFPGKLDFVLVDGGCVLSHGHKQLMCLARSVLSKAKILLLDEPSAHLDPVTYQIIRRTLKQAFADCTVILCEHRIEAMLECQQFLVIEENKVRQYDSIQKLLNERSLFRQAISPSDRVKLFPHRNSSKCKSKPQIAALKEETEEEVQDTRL
How it was run: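 Cells were seeded with 0.5 μg/mL doxycycline and held 68 h at 37 °C. Test compounds plus 3 μM co-corrector (final 0.1% DMSO) were then added for 20 h at 33 °C. Washed cells received HRP substrate, and luminescence was normalized between DMSO and 3 μM co-corrector controls.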

ΔF508-CFTR [2] = molecular target: T1, ΔF508-CFTR; assay: CFTR cell surface levels using HRP-tagged ΔF508-CFTR expressing CFBE cells, intrinsic corrector capacity; format: cell-based; conditions: for EC50: read-out: EC50
How it was run: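 Here the cells express ΔF508-CFTR with horseradish peroxidase inserted in extracellular loop 4, so only rescued channel at the surface gives luminescent signal. Compounds act on their own, 20 h at the reduced temperature of 33 °C; values are percent activity relative to DMSO and a 3 μM corrector.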

[3] = HRP-tagged ΔF508-CFTR expressing CFBE cells, intrinsic corrector capacity (no co-corrector), 33° C., 20 hours
[4] = HRP-tagged ΔF508-CFTR CFBE41o- cells, compounds alone (intrinsic corrector capacity), 20 hours at 33° C., positive control 3 μM corrector
[5] = HRP-tagged ΔF508-CFTR CFBE41o- cells, compounds alone (intrinsic corrector capacity), 20 hours at 33° C.

Row | SMILES | % Activation (ΔF508-CFTR [1]) | EC50 (ΔF508-CFTR [1]) | % Activation (ΔF508-CFTR [2]; [3]) | EC50 (ΔF508-CFTR [2]; [3]) | % Activation (ΔF508-CFTR [2]; [4]) | EC50 (ΔF508-CFTR [2]; [5])
1 | CC1(C)CN(C2CCN(c3cc(C(=O)O)nc4c3c(C3CCC3)nn4-c3ccc(F)cc3)CC2)CCO1 [compound 876, 3-cyclobutyl-4-[4-(2,2-dimethylmorpholin-4-yl)piperidin-1-yl]-1-(4-fluorophenyl)-1H-pyrazolo[3,4-b]pyridine-6-carboxylic acid] | 562.35% | 267 nM | 324.4% | 301 nM |  | 
2 | Cc1nn(-c2ccccc2)c2nc(C(=O)O)cc(N3CC4(CCOCC4)C3)c12 [compound 293, 3-methyl-4-(7-oxa-2-azaspiro[3.5]nonan-2-yl)-1-phenyl-1H-pyrazolo[3,4-b]pyridine-6-carboxylic acid] | 264.9% | 2510 nM |  |  | 90.275% | 2510 nM
3 | O=C(O)c1cc(OCCN2CCS(=O)(=O)CC2)c2c(C3CCC3)nn(-c3ccccc3)c2n1 [compound 436, 3-cyclobutyl-4-[2-(1,1-dioxo-lλ^6,4-thiazinan-4-yl)ethoxy]-1-phenyl-1H-pyrazolo[3,4-b]pyridine-6-carboxylic acid] | 157.15% | 2510 nM | 24.16% | 4170 nM |  | 
4 | Cc1nn(-c2ccccc2)c2nc(C(=O)O)cc(O[C@H]3C[C@H](N4CCCCC4)C3)c12 [compound 345, 3-methyl-1-phenyl-4-{[trans-3-(piperidin-1-yl)cyclobutyl]oxy}-1H-pyrazolo[3,4-b]pyridine-6-carboxylic acid] | 129.4% | 4170 nM |  |  | 23.411% | 4170 nM
5 | CC(C)c1nn(-c2cccc(N3CCOCC3)c2)c2nc(C(=O)O)cc(-c3cnc(N(C)C)nc3)c12 [compound 88, 4-[2-(dimethylamino)pyrimidin-5-yl]-1-[3-(morpholin-4-yl)phenyl]-3-(propan-2-yl)-1H-pyrazolo[3,4-b]pyridine-6-carboxylic acid] | 453.15% | 525 nM |  |  | 288.95% | 693 nM
6 | COCCN(C)c1cccc(-n2nc(C(C)C)c3c(-c4ccc(N5CCOCC5)cc4)cc(C(=O)O)nc32)c1 [compound 172, 1-{3-[(2-methoxyethyl)(methyl)amino]phenyl}-4[4-(morpholin-4-yl)phenyl]-3-(propan-2-yl)-1H-pyrazolo[3,4-b]pyridine-6-carboxylic acid] | 513.1% | 480 nM |  |  | 339.33% | 615 nM
7 | O=C(O)c1cc(N2CCC(N3CCOCC3)CC2)c2c(C3CCC3)nn(-c3cc(F)cc(F)c3)c2n1 [compound 905, 3-cyclobutyl-1-(3,5-difluorophenyl)-4-[4-(morpholin-4-yl)piperidin-1-yl]-1H-pyrazolo[3,4-b]pyridine-6-carboxylic acid] | 466.55% | 145 nM | 278.8% | 362 nM |  | 
8 | COC1CN(c2cccc(-n3nc(C(C)C)c4c(-c5ccc(N6CCOCC6)cc5)cc(C(=O)O)nc43)c2)C1 [compound 164, 1-[3-(3-methoxyazetidin-1-yl)phenyl]-4-[4-(morpholin-4-yl)phenyl]-3-(propan-2-yl)-1H-pyrazolo[3,4-b]pyridine-6-carboxylic acid] | 608.5% | 375 nM |  |  | 359.9% | 675 nM
9 | CNC[C@@H]1CCN(c2cc(C(=O)O)nc3c2c(C2CCC2)nn3-c2ccccc2)C1 [compound 676, 3-cyclobutyl-4-{(3S)-3-[(methylamino)methyl]pyrrolidin-1-yl}-1-phenyl-1H-pyrazolo[3,4-b]pyridine-6-carboxylic acid] | 164.55% | 892 nM | 35.03% | 5000 nM |  | 
10 | Cc1nn(-c2ccccc2)c2nc(C(=O)O)cc(-c3ccc(N4CCC(F)(F)CC4)cc3)c12 [compound 108, 4-[4-(4,4-difluoropiperidin-1-yl)phenyl]-3-methyl-1-phenyl-1H-pyrazolo[3,4-b]pyridine-6-carboxylic acid] | 329.7% | 752 nM |  |  | 145.5% | 904 nM
11 | COCC1CCN(Cc2cc(C(=O)O)nc3c2c(C2CCC2)nn3-c2ccc(F)cc2)CC1 [compound 859, 3-cyclobutyl-1-(4-fluorophenyl)-4-{[4-(methoxymethyl)piperidin-1-yl]methyl}-1H-pyrazolo[3,4-b]pyridine-6-carboxylic acid] | 291.4% | 2560 nM | 89.07% | 2230 nM |  | 
12 | Cc1nn(-c2ccccc2)c2nc(C(=O)O)cc(-c3ccc(N4CC(O)C4)cc3)c12 [compound 124, 4-[4-(3-hydroxyazetidin-1-yl)phenyl]-3-methyl-1-phenyl-1H-pyrazolo[3,4-b]pyridine-6-carboxylic acid] | 371.1% | 1880 nM |  |  | 190.5% | 3080 nM
13 | CC(C)c1nn(-c2cccc(C(F)(F)F)c2)c2nc(C(=O)O)cc(-c3ccc(N4CCC(C#N)CC4)cc3)c12 [compound 261, 4-[4-(4-cyanopiperidin-1-yl)phenyl]-3-(propan-2-yl)-1-[3-(trifluoromethyl)phenyl]-1H-pyrazolo[3,4-b]pyridine-6-carboxylic acid] | 519.37% | 553 nM |  |  | 314.07% | 702 nM
14 | O=C(O)c1cc(OC[C@@H]2CCCO2)c2c(C3CCC3)nn(-c3ccccc3)c2n1 [compound 480, 3-cyclobutyl-4-{[(2S)-oxolan-2-yl]methoxy}-1-phenyl-1H-pyrazolo[3,4-b]pyridine-6-carboxylic acid] | 270.4% | 364 nM | 115.15% | 862 nM |  | 
15 | CC(C)c1nn(C2CCN(CC#N)CC2)c2nc(C(=O)O)cc(-c3ccc(N4CCOCC4)cc3)c12 [compound 95, 1-[1-(cyanomethyl)piperidin-4-yl]-4-[4-(morpholin-4-yl)phenyl]-3-(propan-2-yl)-1H-pyrazolo[3,4-b]pyridine-6-carboxylic acid] | 145.4% | 3340 nM |  |  | 16.66% | > 10000 nM
16 | CC(C)c1nn(-c2cccc(C(F)(F)F)c2)c2nc(C(=O)O)cc(-c3cnc(N(C)C4CCOCC4)nc3)c12 [compound 281, 4-{2-[methyl(oxan-4-yl)amino]pyrimidin-5-yl}-3-(propan-2-yl)-1[3-(trifluoromethyl)phenyl]-1H-pyrazolo[3,4-b]pyridine-6-carboxylic acid] | 425.85% | 908 nM |  |  | 226.7% | 1290 nM
17 | CN1C(=O)CN(CC2CCN(c3cc(C(=O)O)nc4c3c(C3CCC3)nn4-c3ccccc3)CC2)CC12COC2 [compound 845, 3-cyclobutyl-4-{4-[(5-methyl-6-oxo-2-oxa-5,8-diazaspiro[3.5]nonan-8-yl)methyl]piperidin-1-yl}-1-phenyl-1H-pyrazolo[3,4-b]pyridine-6-carboxylic acid] | 499.6% | 1080 nM | 273.7% | 1470 nM |  | 
18 | Cc1nn(-c2ccccc2)c2nc(C(=O)O)cc(-c3ccc(N4CCOC(CO)C4)cc3)c12 (stereo not shown) [compound 133, 4-{4-[2-(hydroxymethyl)morpholin-4-yl]phenyl}-3-methyl-1-phenyl-1H-pyrazolo[3,4-b]pyridine-6-carboxylic acid] | 280.3% | 3340 nM |  |  | 74.96% | 3340 nM
19 | CN1CC[C@@H](Oc2cc(C(=O)O)nc3c2c(C2CCC2)nn3-c2ccccc2)C1 [compound 650, 3-cyclobutyl-4-{[(3R)-1-methylpyrrolidin-3-yl]oxy}-1-phenyl-1H-pyrazolo[3,4-b]pyridine-6-carboxylic acid] | 193.6% | 3330 nM | 45.88% | 3330 nM |  | 
20 | Cc1cccc(-n2nc(C(C)C)c3c(N4CCC(CF)CC4)cc(C(=O)O)nc32)c1 [compound 348, 4-[4-(fluoromethyl)piperidin-1-yl]-1-(3-methylphenyl)-3-(propan-2-yl)-1H-pyrazolo[3,4-b]pyridine-6-carboxylic acid] | 410.3% | 370 nM |  |  | 217.2% | 553 nM
21 | CCC1(COc2cc(C(=O)O)nc3c2c(C2CCC2)nn3-c2ccccc2)COCOC1 [compound 620, 3-cyclobutyl-4-[(5-ethyl-1,3-dioxan-5-yl)methoxy]-1-phenyl-1H-pyrazolo[3,4-b]pyridine-6-carboxylic acid] | 323.25% | 170 nM | 147.4% | 250 nM |  | 
22 | O=C(O)c1cc(N2CCC3(CC2)CC(O)C3)c2c(C3CCC3)nn(-c3ccccc3)c2n1 [compound 543, 3-cyclobutyl-4-(2-hydroxy-7-azaspiro[3.5]nonan-7-yl)-1-phenyl-1H-pyrazolo[3,4-b]pyridine-6-carboxylic acid] | 304.9% | 242 nM | 129.15% | 304 nM |  | 
